Key:
[1] = system: mouse embryonic stem cell line (endothelial differentiation reporter); assay: Endothelial differentiation assay in reporter mouse embryonic stem cell line (green fluorescent protein readout); assay type: cell-based; details: FIG. 1; for effect on estrogen receptor function: reporter cell line; for effect on cell (endothelial) differentiation: reporter mouse embryonic stem cell line, cells differentiated after incubation
Excerpt: Bisphenols have come under increasing scrutiny due to their capacity to mimic estrogen in biological systems, resulting in numerous health complications. Specifically these effects have been observed in endothelial cell differentiation. Bredhult et al., “Gene expression analysis of human endometrial endothelial cells exposed to Bisphenol A,” Reproductive toxicology (Elmsford, N.Y 28, 18-25 (2009). Long et al., Experimental biology and medicine, 226, 477-483 (2001). Accordingly, experiments have been carried out to evaluate the cytotoxicity and differentiation effect of a biologically derived bisphenol polymer precursor replacement. Resveratrol and bisphenol A were incubated with mouse embryonic stem cells and evaluated for cytotoxicity and apoptosis. Cells were then differentiated and evaluated for effect on endothelial differentiation. […] Further studies are planned to test further stages of resveratrol epoxidization. The inventor's lab has developed a mouse embryonic stem cell line capable of providing a quantitative readout of endothelial differentiation due to expression of a green fluorescent protein. Using these and similar cell lines we have been able to assay the effect of new molecules on cell proliferation, death, apoptosis, and endothelial differentiation. Robilotto et al., Dalton Transactions, 40(32): 8083-5 (2011). This cell line will be used to determine the biological effect of the newly proposed polymers as compared to the effect of benchmark controls. Protocols similar to those previously published can be used to determine the biocompatibility of the new polymers as compared to that of benchmark resin, evaluating the capacity of mouse embryonic stem cells to proliferate, their rate of cell death by toxicity or apoptosis, and their capacity to differentiate into […]. Kim et al., Tissue engineering, 15, 3709-3718 (2009); Kim et al., Tissue engineering, 16, 1065-1074 (2010).

[2] = system: mouse embryonic stem cells; assay: Cytotoxicity and apoptosis assay (annexin-V / 7-AAD) in mouse embryonic stem cells; assay type: cell-based; details: incubated with mouse embryonic stem cells; FIG. 1
Excerpt: Bisphenols have come under increasing scrutiny due to their capacity to mimic estrogen in biological systems, resulting in numerous health complications. Specifically these effects have been observed in endothelial cell differentiation. Bredhult et al., “Gene expression analysis of human endometrial endothelial cells exposed to Bisphenol A,” Reproductive toxicology (Elmsford, N.Y 28, 18-25 (2009). Long et al., Experimental biology and medicine, 226, 477-483 (2001). Accordingly, experiments have been carried out to evaluate the cytotoxicity and differentiation effect of a biologically derived bisphenol polymer precursor replacement. Resveratrol and bisphenol A were incubated with mouse embryonic stem cells and evaluated for cytotoxicity and apoptosis. Cells were then differentiated and evaluated for effect on endothelial differentiation. […]
The procedure for testing toxicity was and can be carried out as follows. […] 100,000 E14 cells were added to a 10 cm plate, covered with 1, 10 and 100 mg of polymer sample, and incubated for 48 hours followed by application of the MTT dye solutions and measurement of absorbance at 570 nm.
The number of apoptotic cells are quantified using an annexin-V apoptosis staining kit with 7-Amino-actinomycin D (7-AAD) vital stain (AnnexinV—PE Apoptosis Detection Kit; BD Biosciences Pharmingen, San Diego, Calif.). […]

Row | SMILES | effect on estrogen receptor function [1] | effect on cell (endothelial) differentiation [1] | over toxicity using the apoptosis assay [2] | effect on estrogen receptor function ([1]; listed as BPA) | effect on cell (endothelial) differentiation ([1]; listed as BPA)
1 | Oc1ccc(C=Cc2cc(O)cc(O)c2)cc1 [Resveratrol, resveratrol] | little to no impact on estrogen receptor function | comparable to negative controls | relatively indistinguishable | – | –
2 | CC(C)(c1ccc(O)cc1)c1ccc(O)cc1 [bisphenol A] | clearly interferes with estrogen receptor function | negatively effects cell differentiation | relatively indistinguishable | interferes estrogen receptor function | negatively impacts cell differentiation
